These results are taken from patent publication US11746113B2, “Labelled cannabinergic ligands and related analogs” (priority 2020, dated 2023).

In one data set the test system is CB1/CB2 receptors. The data set is described as follows: Tight/irreversible binding: reduction of [3H]CP-55,940 Bmax after ligand pretreatment. To be noted: receptors preincubated with ligand at 10-fold its Ki; saturation binding with [3H]CP-55,940; FIG. 8C. As to the method: Some disclosed compounds were tested for CB1 and CB2 receptor binding affinity (Tables 1, 2 and 3). As used herein “binding affinity” is represented by the Ki value. The Ki value is the affinity constant and describes the affinity of the compound for the receptor. The lower the Ki value, the higher the affinity of the compound for the receptor. A detailed description of the methods used to test “binding affinity” of compounds is given in Makriyannis, et al., US 2007, 0135388 and in Papahatjis, et al. J. Med. Chem. (2007) 4048, the content of each of which is hereby incorporated by reference. Functional characterization of some of the disclosed compounds was performed by using the cyclic adenosine monophosphate (cAMP) assay. The functional potency of the compound is represented by the EC50 value. The lower the EC50 value, the higher the functional potency. A detailed description of the cyclic adenosine monophosphate (cAMP) assay is given in Nikas et al. J. Med. Chem. (2010) 6996. The ability of some of the ligands to bind to the CB1/CB2 receptors with a tight/irreversible binding mode was determined by measuring reductions in the binding for the radioligand [3H]CP-55,940 when the receptor preparation was pretreated with the tight/irreversible ligand, and comparing it to the untreated sample as disclosed in Ogava et al. J. Med. Chem. (2015) 58, 3104. Reductions in the specific binding (Bmax) of [^3H]CP-55,940 after ligand pretreatment indicate ability of the ligand to tight/irreversibly bind to the receptor. As detailed in Ogava et al. J Med. Chem. (2015) 58, 3104, the experiment was conducted by pretreating the sample with a concentration equal to 10-fold the compound's Ki value for the receptor in question and subsequently measuring the decrease of Bmax obtained from a saturation curve using [3H]CP-55,940.

A short description of data set [1]: Fluorescence properties (excitation/emission maxima). Type of data set: physicochemical.

Consider `CCCCCCC(C)(C)c1cc(OC(=O)C(C)(C)CCCNC(=O)c2cc3cc4c5c(c3oc2=O)CCCN5CCC4)c2c(c1)OC(C)(C)C1CCC(=O)C[C@@H]21` (stereo in doubt) [Compound 9.11, (6aS,10aR)-6,6-Dimethyl-3-(2-methyloctan-2-yl)-9-oxo-6a,7,8,9,10,10a-hexahydro-6H-benzo[c]chromen-1-yl 2,2-dimethyl-5-(11-oxo-2,3,6,7-tetrahydro-1H, 5H, 11H-pyrano[2,3-f]pyrido[3,2,1-ij]quinoline-10-carboxamido)pentanoate], for which the melting point (usually the temperature of the solid-liquid transition) fell in the range of 130 to 131 °C. Take `CCCCCCC(C)(C)c1cc(OC(=O)C(C)(C)CCCCNC(=O)c2cc3cc4c5c(c3oc2=O)CCCN5CCC4)c2c(c1)OC(C)(C)C1CCC(=O)C[C@@H]21` (stereo in doubt) [Compound 9.12, (6aS,10aR)-6,6-Dimethyl-3-(2-methyloctan-2-yl)-9-oxo-6a,7,8,9,10,10a-hexahydro-6H-benzo[c]chromen-1-yl 2,2-dimethyl-6-(11-oxo-2,3,6,7-tetrahydro-1H, 5H, 11H-pyrano[2,3-f]pyrido[3,2,1-ij]quinoline-10-carboxamido)hexanoate]: the melting point was in the range of 133 to 134 °C. Turning to `CC(C)(CCCCCCCl)c1cc(O)c2c(c1)OC(C)(C)[C@@H]1CC[C@@H](Cn3cc(COC(=O)CCCC[C@@H]4SC[C@@H]5NC(=O)N[C@@H]54)nn3)C[C@@H]21` [Compound 3.1, (1-{[(6aR,9R,10aR)-3-(8-Chloro-2-methyloctan-2-yl)-1-hydroxy-6,6-dimethyl-6a,7,8,9,10,10a-hexahydro-6H-benzo [c]chromen-9-yl]methyl}-1H-1,2,3-triazol-4-yl)methyl 5-[(3aS,4S,6aR)-2-oxohexahydro-1H-thieno[3,4-d]imidazol-4-yl]pentanoate], the tight/irreversible binding mode entry in the data set with CB1/CB2 receptors is “tight/irreversible”. `CC(C)(CCCCCCCl)c1cc(O)c2c(c1)OC(C)(C)[C@@H]1CC[C@@H](Cn3cc(COC(=O)CCCCCNC(=O)CCCC[C@@H]4SC[C@@H]5NC(=O)N[C@@H]54)nn3)C[C@@H]21` [Compound 3.2, (1-{[(6aR,9R,10aR)-3-(8-Chloro-2-methyloctan-2-yl)-1-hydroxy-6,6-dimethyl-6a,7,8,9,10,10a-hexahydro-6H-benzo [c]chromen-9-yl]methyl}-1H-1,2,3-triazol-4-yl)methyl 6-{5-[(3aS,4S,6aR)-2-oxohexahydro-1H-thieno[3,4-d]imidazol-4-yl]pentanamido}hexanoate]: in the data set with CB1/CB2 receptors, the tight/irreversible binding mode entry is recorded as “tight/irreversible”.

With `CN(C)S(=O)(=O)c1ccc(NCc2cn(C[C@@H]3CC[C@@H]4[C@@H](C3)c3c(O)cc(C(C)(C)CCCCCCCl)cc3OC4(C)C)nn2)c2nonc12` [Compound 3.3, 7-(((1-(((6aR,9R,10aR)-3-(8-Chloro-2-methyloctan-2-yl)-1-hydroxy-6,6-dimethyl-6a,7,8,9,10,10a-hexahydro-6H-benzo [c]chromen-9-yl)methyl)-1H-1,2,3-triazol-4-yl)methyl)amino)-N,N-dimethylbenzo[c][1,2,5]oxadiazole-4-sulfonamide], in data set [1] (Acetonitrile), the “Em λmax” value is reported as 583 and the “Ex λmax” value was determined as 416. Moreover, in data set [1] (Ethanol), the “Em λmax” value is 581 and the “Ex λmax” value is 415. Taken in the same sequence, the figures for `CC(C)(CCCCCCCl)c1cc(O)c2c(c1)OC(C)(C)[C@@H]1CC[C@@H](Cn3cc(COCCCCNC(=O)c4cc5cc6c7c(c5oc4=O)CCCN7CCC6)nn3)C[C@@H]21` [Compound 3.4, N-{4-[(1-{[(6aR,9R,10aR)-3-(8-Chloro-2-methyloctan-2-yl)-1-hydroxy-6,6-dimethyl-6a,7,8,9,10,10a-hexahydro-6H-benzo[c]chromen-9-yl]methyl}-1H-1,2,3-triazol-4-yl)methoxy]butyl}-11-oxo-2,3,6,7-tetrahydro-1H, 5H, 11H-pyrano[2,3-f]pyrido[3,2,1-ij]quinoline-10-carboxamide] were 488, 437, 477 and 436. Regarding `CC(C)(CCCCCCCl)c1cc(O)c2c(c1)OC(C)(C)[C@@H]1CC[C@@H](Cn3cc(CNC(=O)c4cc5cc6c7c(c5oc4=O)CCCN7CCC6)nn3)C[C@@H]21` [Compound 3.13], in data set [1] (Acetonitrile), the “Em λmax” value was found to be 488 and the “Ex λmax” value is reported as 435. In data set [1] (Ethanol), the “Em λmax” value is recorded as 478 and the “Ex λmax” value amounted to 436.

As to `CC(C)(CCCCCCCl)c1cc(O)c2c(c1)OC(C)(C)[C@@H]1CC[C@@H](COC(=O)CCCC[C@@H]3SC[C@@H]4NC(=O)N[C@@H]43)C[C@@H]21` [Compound 4.2, [(6aR,9R,10aR)-3-(8-Chloro-2-methyloctan-2-yl)-1-hydroxy-6,6-dimethyl-6a,7,8,9,10,10a-hexahydro-6H-benzo[c]chromen-9-yl]methyl 5-[(3a,4S,6aR)-2-oxohexahydro-1H-thieno[3,4-d]imidazol-4-yl]pentanoate], the tight/irreversible binding mode entry in the data set with CB1/CB2 receptors is given as “tight/irreversible”. As to `CC(C)(CCCCCCCl)c1cc(O)c2c(c1)OC(C)(C)[C@@H]1CC[C@@H](COC(=O)CCCCCNC(=O)CCCC[C@@H]3SC[C@@H]4NC(=O)N[C@@H]43)C[C@@H]21` [Compound 4.4, [(6aR,9R,10aR)-3-(8-Chloro-2-methyloctan-2-yl)-1-hydroxy-6,6-dimethyl-6a,7,8,9,10,10a-hexahydro-6H-benzo[c]chromen-9-yl]methyl 6-{5-[(3aS,4S,6aR)-2-oxohexahydro-1H-thieno[3,4-d]imidazol-4-yl]pentanamido}hexanoate], the tight/irreversible binding mode result in the data set with CB1/CB2 receptors is given as “tight/irreversible”. On to `CC(C)(CCCCCCO[N+](=O)[O-])c1cc(O)c2c(c1)OC(C)(C)[C@@H]1CC[C@@H](COC(=O)CCCC[C@@H]3SC[C@@H]4NC(=O)N[C@@H]43)C[C@@H]21` [Compound 4.7, {(6aR,9R,10aR)-1-Hydroxy-6,6-dimethyl-3-[2-methyl-8-(nitrooxy)octan-2-yl]-6a,7,8,9,10,10a-hexahydro-6H-benzo[c]chromen-9-yl}methyl 5-[(3aS,4S,6aR)-2-oxohexahydro-1H-thieno[3,4-d]imidazol-4-yl]pentanoate], for which, in the data set on CB1/CB2 receptors, the tight/irreversible binding mode result is “tight/irreversible”.

For the molecule `CCCCCCC(C)(C)c1cc(OC(=O)c2cc3cc4c5c(c3oc2=O)CCCN5CCC4)c2c(c1)OC(C)(C)[C@@H]1CCC(=O)C[C@@H]21` [Compound 7.1, (6aR,10aR)-6,6-Dimethyl-3-(2-methyloctan-2-yl)-9-oxo-6a,7,8,9,10,10a-hexahydro-6H-benzo[c]chromen-1-yl 11-oxo-2,3,6,7-tetrahydro-1H, 5H, 11H-pyrano[2,3-f]pyrido[3,2,1-ij]quinoline-10-carboxylate], the melting point was 132 to 133 °C.

With `CCCCCCC(C)(C)c1cc(OC(=O)c2cc3ccc(OC)cc3oc2=O)c2c(c1)OC(C)(C)[C@@H]1CCC(=O)C[C@@H]21` [Compound 7.2, (6aR,10aR)-6,6-Dimethyl-3-(2-methyloctan-2-yl)-9-oxo-6a,7,8,9,10,10a-hexahydro-6H-benzo[c]chromen-1-yl 7-methoxy-2-oxo-2H-chromene-3-carboxylate], the melting point lay in the range of 122 to 123 °C.

`CCCCCCC(C)(C)c1cc(OC(=O)C(C)(C)CNC(=O)c2cc3cc4c5c(c3oc2=O)CCCN5CCC4)c2c(c1)OC(C)(C)[C@@H]1CCC(=O)C[C@@H]21` [Compound 9.9, (6aR,10aR)-6,6-Dimethyl-3-(2-methyloctan-2-yl)-9-oxo-6a,7,8,9,10,10a-hexahydro-6H-benzo[c]chromen-1-yl 2,2-dimethyl-3-(11-oxo-2,3,6,7-tetrahydro-1H, 5H, 11H-pyrano[2,3-f]pyrido[3,2,1-ij]quinoline-10-carboxamido)propanoate] returned a melting point of 131 to 132 °C. In turn, `CCCCCCC(C)(C)c1cc(OC(=O)C(C)(C)CCNC(=O)c2cc3cc4c5c(c3oc2=O)CCCN5CCC4)c2c(c1)OC(C)(C)[C@@H]1CCC(=O)C[C@@H]21` [Compound 9.10, (6aR,10aR)-6,6-Dimethyl-3-(2-methyloctan-2-yl)-9-oxo-6a,7,8,9,10,10a-hexahydro-6H-benzo[c]chromen-1-yl 2,2-dimethyl-4-(11-oxo-2,3,6,7-tetrahydro-1H, 5H, 11H-pyrano[2,3-f]pyrido[3,2,1-ij]quinoline-10-carboxamido)butanoate] came in with a melting point of 132 to 133 °C.
